# Experimental data as given in US9765092B2, “Tricyclic piperidine compounds” (ACTELION PHARMACEUTICALS LTD, priority 2013, dated 2017).
# Biological target: human TPH1 (Homo sapiens (Human), UniProt P17752)
# Assay: Biochemical in vitro assay using fluorescence readout (TPH1 inhibition)
# Details: full length human TPH1, 40 μM L-tryptophan, 15° C., 60 minutes, fluorescence at 540 nm; mean if determined several times
# Chain of human TPH1 (P17752 whole entry): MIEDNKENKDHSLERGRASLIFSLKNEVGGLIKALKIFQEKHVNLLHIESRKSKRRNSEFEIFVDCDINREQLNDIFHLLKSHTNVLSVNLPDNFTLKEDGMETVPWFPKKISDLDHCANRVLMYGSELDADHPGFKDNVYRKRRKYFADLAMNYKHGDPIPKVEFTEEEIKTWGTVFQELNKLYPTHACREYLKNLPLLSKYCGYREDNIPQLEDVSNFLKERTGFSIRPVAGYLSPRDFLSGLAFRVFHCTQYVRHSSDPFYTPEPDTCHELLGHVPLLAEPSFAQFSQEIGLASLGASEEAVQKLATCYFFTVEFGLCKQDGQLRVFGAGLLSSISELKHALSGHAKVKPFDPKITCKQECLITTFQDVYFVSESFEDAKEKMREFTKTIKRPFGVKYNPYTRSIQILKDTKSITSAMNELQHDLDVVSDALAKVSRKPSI
row,Structure (SMILES),IC50
1,"Cc1nn2c3c(nc2s1)CCN(C(=O)COc1ccc(S(N)(=O)=O)nc1Cl)C3c1ccc(Cl)cc1F (stereo not shown) [Example 1.4.12, 6-Chloro-5-(2-(5-(4-chloro-2-fluorophenyl)-2-methyl-7,8-dihydro-[1,3,4]thiadiazolo[2′,3′:2,3]imidazo[4,5-c]pyridin-6(5H)-yl)-2-oxoethoxy)pyridine-2-sulfonamide]",57 nM
2,"Cc1nn2c3c(nc2s1)CCN(C(=O)COc1ccc(N(C)C)nc1Cl)C3c1cnc(N(C)C)s1 (stereo not shown) [Example 1.22.2, 2-((2-Chloro-6-(dimethylamino)pyridin-3-yl)oxy)-1-(5-(2-(dimethylamino)thiazol-5-yl)-2-methyl-7,8-dihydro[1,3,4]thiadiazolo[2′,3′:2,3]imidazo[4,5-c]pyridin-6(5H)-yl)ethanone]",25 nM
3,"Cc1nn2c3c(nc2s1)CCN(C(=O)COc1ccc(N2CCOCC2)nc1Cl)C3c1nc(C(=O)O)cs1 (stereo not shown) [Example 1.41.1, 2-(6-(2-((2-chloro-6-morpholinopyridin-3-yl)oxy)acetyl)-2-methyl-5,6,7,8-tetrahydro-[1,3,4]thiadiazolo[2′,3′:2,3]imidazo[4,5-c]pyridin-5-yl)thiazole-4-carboxylic acid]",65 nM
4,"Cc1nn2c3c(nc2s1)CCN(C(=O)COc1ccc(N2CCOCC2)nc1Cl)C3c1cnc(N(C)C)s1 (stereo not shown) [Example 1.22.1, 2-((2-Chloro-6-morpholinopyridin-3-yl)oxy)-1-(5-(2-(dimethylamino)-thiazol-5-yl)-2-methyl-7,8-dihydro[1,3,4]thiadiazolo[2′,3′:2,3]imidazo[4,5-c]pyridin-6(5H)-yl)ethanone]",7 nM
5,"Cc1nn2c3c(nc2s1)CCN(C(=O)COc1ccc(C(=O)NO)nc1Cl)C3c1ccc(Cl)cc1F (stereo not shown) [Example 1.4.25, 6-Chloro-5-(2-(5-(4-chloro-2-fluorophenyl)-2-methyl-7,8-dihydro-[1,3,4]thiadiazolo[2′,3′:2,3]imidazo[4,5-c]pyridin-6(5H)-yl)-2-oxoethoxy)-N-hydroxy-picolinamide]",14 nM
6,"Cc1nn2c3c(nc2s1)CCN(C(=O)COc1ccc(N2CCOCC2)nc1Cl)C3c1sc(-c2nnn[nH]2)cc1F (stereo not shown) [Example 1.70.1, 2-((2-Chloro-6-morpholinopyridin-3-yl)oxy)-1-(5-(3-fluoro-5-(1H-tetrazol-5-yl)thiophen-2-yl)-2-methyl-7,8-dihydro-[1,3,4]thiadiazolo[2′,3′:2,3]imidazo-[4,5-c]pyridin-6(5H)-yl)ethanone]",13 nM

# Same assay, conditions: human TPH1, fluorescence readout
row,Structure (SMILES),IC50
1,"CS(=O)(=O)Nc1ccc(OCC(=O)N2CCc3nc4sc(C5CC5)nn4c3C2c2ccc(Cl)cc2F)c(Cl)n1 (stereo not shown) [Example 4.1.1, N-(6-chloro-5-(2-(5-(4-chloro-2-fluorophenyl)-2-cyclopropyl-7,8-dihydro-[1,3,4]thiadiazolo-[2′,3′:2,3]imidazo[4,5-c]pyridin-6(5H)-yl)-2-oxoethoxy)pyridin-2-yl)methanesulfonamide]",16 nM
2,"Cc1nn2c3c(nc2s1)CCN(C(=O)COc1ccc(C#N)cc1Cl)C3c1ccc(Cl)cc1F (stereo not shown) [Example 1.4.24, 3-chloro-4-(2-(5-(4-chloro-2-fluorophenyl)-2-methyl-7,8-dihydro-[1,3,4]thiadiazolo[2′,3′:2,3]imidazo[4,5-c]pyridin-6(5H)-yl)-2-oxoethoxy)benzonitrile]",11 nM
3,"CNC(=O)c1cc(F)c(C2c3c(nc4sc(C)nn34)CCN2C(=O)COc2ccc(C(F)(F)F)cc2Cl)s1 (stereo not shown) [Example 1.25.2, 5-(6-(2-(2-chloro-4-(trifluoromethyl)phenoxy)acetyl)-2-methyl-5,6,7,8-tetrahydro-[1,3,4]thiadiazolo[2′,3′:2,3]imidazo[4,5-c]pyridin-5-yl)-4-fluoro-N-methylthiophene-2-carboxamide]",10 nM
4,"Cc1nn2c3c(nc2s1)CCN(C(=O)COc1ccc(C(=O)NC2CC2)nc1Cl)C3c1ccc(OC(F)(F)F)cc1F (stereo not shown) [Example 1.77.2, 6-chloro-N-cyclopropyl-5-(2-(5-(2-fluoro-4-(trifluoromethoxy)phenyl)-2-methyl-7,8-dihydro-[1,3,4]thiadiazolo[2′,3′:2,3]imidazo[4,5-c]pyridin-6(5H)-yl)-2-oxoethoxy)picolinamide]",28 nM
5,"Cc1nn2c3c(nc2s1)CCN(C(=O)COc1cccnc1C(F)(F)F)C3c1ccc(C2CC2)cc1F (stereo not shown) [Example 1.6.13, 1-(5-(4-cyclopropyl-2-fluorophenyl)-2-methyl-7,8-dihydro-[1,3,4]thiadiazolo[2′,3′:2,3]imidazo[4,5-c]pyridin-6(5H)-yl)-2-((2-(trifluoromethyl)pyridin-3-yl)oxy)ethanone]",4 nM
6,"CCc1nn2c3c(nc2s1)CCN(C(=O)COc1ccc(-c2ncco2)nc1Cl)C3c1ccc(Cl)cc1F (stereo not shown) [Example 3.1.3, 1-(5-(4-chloro-2-fluorophenyl)-2-ethyl-7,8-dihydro-[1,3,4]thiadiazolo[2′,3′:2,3]imidazo[4,5-c]pyridin-6(5H)-yl)-2-((2-chloro-6-(oxazol-2-yl)pyridin-3-yl)oxy)ethanone]",12 nM
7,"Cc1nn2c3c(nc2s1)CCN(C(=O)COc1ccc(C#N)nc1Cl)C3c1ccc(C2CC2)cc1F (stereo not shown) [Example 1.6.23, 6-chloro-5-(2-(5-(4-cyclopropyl-2-fluorophenyl)-2-methyl-7,8-dihydro-[1,3,4]thiadiazolo[2′,3′:2,3]imidazo[4,5-c]pyridin-6(5H)-yl)-2-oxoethoxy)picolinonitrile]",8 nM
8,"Cc1nn2c3c(nc2s1)CCN(C(=O)COc1ccc(N(C)C)nc1Cl)C3c1ccc(C2CC2)cc1F (stereo not shown) [Example 1.6.22, 2-((2-chloro-6-(dimethylamino)pyridin-3-yl)oxy)-1-(5-(4-cyclopropyl-2-fluorophenyl)-2-methyl-7,8-dihydro-[1,3,4]thiadiazolo[2′,3′:2,3]imidazo[4,5-c]pyridin-6(5H)-yl)ethanone]",3 nM
9,"COC(=O)c1cnc(C2c3c(nc4sc(C)nn34)CCN2C(=O)COc2ccc(N3CCOCC3)nc2Cl)s1 (stereo not shown) [Example 1.28.1, Methyl 2-(6-(2-((2-chloro-6-morpholinopyridin-3-yl)oxy)acetyl)-2-methyl-5,6,7,8-tetrahydro-[1,3,4]thiadiazolo [2′,3′:2,3]imidazo[4,5-c]pyridin-5-yl)thiazole-5-carboxylate]",7 nM
10,"CS(=O)(=O)Nc1ccc(OCC(=O)N2CCc3nc4sc(C(F)F)nn4c3C2c2ccc(Cl)cc2F)c(Cl)n1 (stereo not shown) [Example 8.1.1, N-(6-chloro-5-(2-(5-(4-chloro-2-fluorophenyl)-2-(difluoromethyl)-7,8-dihydro-[1,3,4]thiadiazolo-[2′,3′:2,3]imidazo[4,5-c]pyridin-6(5H)-yl)-2-oxoethoxy)pyridin-2-yl)methanesulfonamide]",19 nM
11,"CCc1nc(NS(C)(=O)=O)ccc1OCC(=O)N1CCc2nc3sc(CF)nn3c2C1c1ccc(C)cc1F (stereo not shown) [Example 7.3.2, N-(6-ethyl-5-(2-(5-(2-fluoro-4-methylphenyl)-2-(fluoromethyl)-7,8-dihydro-[1,3,4]thiadiazolo[2′,3′:2,3]imidazo[4,5-c]pyridin-6(5H)-yl)-2-oxoethoxy)pyridin-2-yl)methanesulfonamide]",12 nM
12,"CNS(=O)(=O)c1ccc(OCC(=O)N2CCc3nc4sc(C)nn4c3C2c2ccc(Cl)cc2F)c(Cl)n1 (stereo not shown) [Example 1.4.60, 6-chloro-5-(2-(5-(4-chloro-2-fluorophenyl)-2-methyl-7,8-dihydro-[1,3,4]thiadiazolo[2′,3′:2,3]imidazo[4,5-c]pyridin-6(5H)-yl)-2-oxoethoxy)-N-methylpyridine-2-sulfonamide]",36 nM
13,"Cc1nn2c3c(nc2s1)CCN(C(=O)COc1ccc(C(=O)N(C)C)nc1Cl)C3c1cccc(Cl)c1F (stereo not shown) [Example 1.58.1, 6-chloro-5-(2-(5-(3-chloro-2-fluorophenyl)-2-methyl-7,8-dihydro-[1,3,4]thiadiazolo[2′,3′:2,3]imidazo[4,5-c]pyridin-6(5H)-yl)-2-oxoethoxy)-N,N-dimethylpicolinamide]",42 nM
14,"Cc1nn2c3c(nc2s1)CCN(C(=O)COc1ccc(N2CCOCC2)nc1Cl)C3c1cnc(OC(F)F)cc1C (stereo not shown) [Example 1.15.2, 2-((2-chloro-6-morpholinopyridin-3-yl)oxy)-1-(5-(6-(difluoromethoxy)-4-methylpyridin-3-yl)-2-methyl-7,8-dihydro-[1,3,4]thiadiazolo[2′,3′:2,3]imidazo[4,5-c]pyridin-6(5H)-yl)ethanone]",7 nM
15,"COc1ccc(C2c3c(nc4sccn34)CCN2C(=O)COc2ccc3ccncc3c2)c(F)c1 (stereo not shown) [Example 6.3.3, 1-(5-(2-fluoro-4-methoxyphenyl)-7,8-dihydrothiazolo[2′,3′:2,3]imidazo[4,5-c]pyridin-6(5H)-yl)-2-(isoquinolin-7-yloxy)ethanone]",4 nM
16,"CCc1nc(NS(C)(=O)=O)ccc1OCC(=O)N1CCc2nc3sc(C)nn3c2C1c1ccc(C)c(F)c1F (stereo not shown) [Example 1.61.5, N-(5-(2-(5-(2,3-difluoro-4-methylphenyl)-2-methyl-7,8-dihydro-[1,3,4]thiadiazolo[2′,3′:2,3]imidazo[4,5-c]pyridin-6(5H)-yl)-2-oxoethoxy)-6-ethylpyridin-2-yl)methanesulfonamide]",9 nM
17,"Cc1nn2c3c(nc2s1)CCN(C(=O)COc1ccnc2c(C)c(Cl)ccc12)C3c1ccc(Cl)cc1F (stereo not shown) [Example 1.4.64, 1-(5-(4-chloro-2-fluorophenyl)-2-methyl-7,8-dihydro-[1,3,4]thiadiazolo[2′,3′:2,3]imidazo[4,5-c]pyridin-6(5H)-yl)-2-((7-chloro-8-methylquinolin-4-yl)oxy)ethan-1-one]",255 nM
18,"Cc1nn2c3c(nc2s1)CCN(C(=O)COc1c(Cl)nc(N2CCOCC2)c(F)c1F)C3c1ncc(C2CC2)cc1F (stereo not shown) [Example 1.14.11, 2-((2-chloro-4,5-difluoro-6-morpholinopyridin-3-yl)oxy)-1-(5-(5-cyclopropyl-3-fluoropyridin-2-yl)-2-methyl-7,8-dihydro-[1,3,4]thiadiazolo[2′,3′:2,3]imidazo[4,5-c]pyridin-6(5H)-yl)ethanone]",122 nM
19,"Cc1nn2c3c(nc2s1)CCN(C(=O)COc1ccc(S(N)(=O)=O)cc1C)C3c1ccc(C2CC2)cc1F (stereo not shown) [Example 1.6.14, 4-(2-(5-(4-cyclopropyl-2-fluorophenyl)-2-methyl-7,8-dihydro-[1,3,4]thiadiazolo[2′,3′:2,3]imidazo[4,5-c]pyridin-6(5H)-yl)-2-oxoethoxy)-3-methylbenzenesulfonamide]",45 nM
